The text below walks through data of ChEMBL document CHEMBL1156502, “Stabilized immune modulatory RNA compounds as agonists of Toll-like receptors 7 and 8” (Proc Natl Acad Sci U S A, 2007).

Activity calls are given as the source filed them. No cut-off for these calls is given here.

Data set [1] relates to Mus musculus. Nature of the data set: Induction of cytokine secretion in C57BL/6 mouse plasma at 100 mg/kg, sc by Luminex Multiplex assay. Type of data set: functional, organism-based. Also on record: dose 100 mg/kg.
In data set [2] the target is T1, Toll-like receptor 7 (Homo sapiens) (UniProt Q9NYK1).
T1 sequence (whole entry): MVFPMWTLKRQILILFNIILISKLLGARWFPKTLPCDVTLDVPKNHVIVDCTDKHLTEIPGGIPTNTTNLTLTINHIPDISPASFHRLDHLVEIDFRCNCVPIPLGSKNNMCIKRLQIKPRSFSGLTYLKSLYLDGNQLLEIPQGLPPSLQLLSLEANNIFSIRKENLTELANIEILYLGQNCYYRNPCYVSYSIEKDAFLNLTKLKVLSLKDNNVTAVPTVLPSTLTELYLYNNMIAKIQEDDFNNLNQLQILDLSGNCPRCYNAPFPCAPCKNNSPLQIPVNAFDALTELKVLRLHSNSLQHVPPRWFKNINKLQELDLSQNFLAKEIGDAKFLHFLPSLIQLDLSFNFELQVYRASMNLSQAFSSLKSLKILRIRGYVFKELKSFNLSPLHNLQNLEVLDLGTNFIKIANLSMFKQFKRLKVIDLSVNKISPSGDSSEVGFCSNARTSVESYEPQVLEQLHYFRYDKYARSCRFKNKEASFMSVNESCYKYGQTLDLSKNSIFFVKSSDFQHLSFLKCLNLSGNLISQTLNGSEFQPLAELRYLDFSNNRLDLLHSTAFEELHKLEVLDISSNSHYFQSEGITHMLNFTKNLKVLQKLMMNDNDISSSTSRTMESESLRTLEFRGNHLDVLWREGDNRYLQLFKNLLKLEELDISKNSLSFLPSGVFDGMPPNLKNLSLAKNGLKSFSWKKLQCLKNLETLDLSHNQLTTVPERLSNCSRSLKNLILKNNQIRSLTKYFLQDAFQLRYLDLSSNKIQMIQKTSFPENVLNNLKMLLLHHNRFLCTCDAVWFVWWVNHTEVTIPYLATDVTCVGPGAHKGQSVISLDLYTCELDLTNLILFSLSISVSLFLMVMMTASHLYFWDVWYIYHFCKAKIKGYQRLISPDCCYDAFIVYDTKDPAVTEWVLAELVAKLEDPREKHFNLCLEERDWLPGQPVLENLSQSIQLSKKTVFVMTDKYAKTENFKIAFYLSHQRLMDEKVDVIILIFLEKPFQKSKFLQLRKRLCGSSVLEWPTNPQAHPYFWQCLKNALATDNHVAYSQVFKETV
Nature of the data set: Activation of human TLR7 expressed in HEK293 cells assessed as increase in NF-kappaB activation at 100 ug/ml by SEAP assay. The class given is cell-based.

In data set [3] the test system is Mus musculus. Nature of the data set: Induction of MCP1 secretion in C57BL/6 mouse plasma at 100 mg/kg, sc by Luminex Multiplex assay. Type of data set: functional, organism-based. Also on record: dose 100 mg/kg.
For data set [4], the system named is Cynomolgus monkey. Description: Increase in CD69 expression on CD16+ NK cells in cynomolgus monkey at 5 mg/kg, sc after 24 hrs by flow cytometry relative to control. Also noted: dose 5 mg/kg. Type of data set: functional, organism-based. Particulars: Macaca fascicularis.
Data set [5] relates to Cynomolgus monkey. Nature of the data set: Increase in CD69 expression on CD3+ lymphocytes in cynomolgus monkey at 5 mg/kg, sc after 24 hrs by flow cytometry relative to control. Type of data set: functional, organism-based. Also on record: dose 5 mg/kg. Particulars: Macaca fascicularis.
For data set [6], the system named is Mus musculus. Nature of the data set: Induction of IL12 secretion in sc dosed C57BL/6 mouse serum after 2 hrs by ELISA. The class given is functional, organism-based.
The nature of data set [7]: Stability in 1% human serum assessed as full length product after 10 mins. The class given is ADME, cell-free. Particulars: read-out: Stability.
In data set [8] the test system is Mus musculus. Description: Induction of IL10 secretion in C57BL/6 mouse plasma at 100 mg/kg, sc by Luminex Multiplex assay. Type of data set: functional, organism-based. Also noted: dose 100 mg/kg.
Data set [9] deals with spleen. Description: Induction of cytokine secretion in C57BL/6 mouse spleen cells at 100 ug/ml after 24 hrs by Luminex Multiplex assay. Type of data set: functional, cell-based.
The subject of data set [10] is Mus musculus. Description: Induction of chemokine secretion in C57BL/6 mouse plasma at 100 mg/kg, sc by Luminex Multiplex assay. Type of data set: functional, organism-based. Also on record: dose 100 mg/kg.
Data set [11] addresses T2, Toll-like receptor 8 (Homo sapiens) (UniProt Q9NR97).
T2 sequence (whole entry): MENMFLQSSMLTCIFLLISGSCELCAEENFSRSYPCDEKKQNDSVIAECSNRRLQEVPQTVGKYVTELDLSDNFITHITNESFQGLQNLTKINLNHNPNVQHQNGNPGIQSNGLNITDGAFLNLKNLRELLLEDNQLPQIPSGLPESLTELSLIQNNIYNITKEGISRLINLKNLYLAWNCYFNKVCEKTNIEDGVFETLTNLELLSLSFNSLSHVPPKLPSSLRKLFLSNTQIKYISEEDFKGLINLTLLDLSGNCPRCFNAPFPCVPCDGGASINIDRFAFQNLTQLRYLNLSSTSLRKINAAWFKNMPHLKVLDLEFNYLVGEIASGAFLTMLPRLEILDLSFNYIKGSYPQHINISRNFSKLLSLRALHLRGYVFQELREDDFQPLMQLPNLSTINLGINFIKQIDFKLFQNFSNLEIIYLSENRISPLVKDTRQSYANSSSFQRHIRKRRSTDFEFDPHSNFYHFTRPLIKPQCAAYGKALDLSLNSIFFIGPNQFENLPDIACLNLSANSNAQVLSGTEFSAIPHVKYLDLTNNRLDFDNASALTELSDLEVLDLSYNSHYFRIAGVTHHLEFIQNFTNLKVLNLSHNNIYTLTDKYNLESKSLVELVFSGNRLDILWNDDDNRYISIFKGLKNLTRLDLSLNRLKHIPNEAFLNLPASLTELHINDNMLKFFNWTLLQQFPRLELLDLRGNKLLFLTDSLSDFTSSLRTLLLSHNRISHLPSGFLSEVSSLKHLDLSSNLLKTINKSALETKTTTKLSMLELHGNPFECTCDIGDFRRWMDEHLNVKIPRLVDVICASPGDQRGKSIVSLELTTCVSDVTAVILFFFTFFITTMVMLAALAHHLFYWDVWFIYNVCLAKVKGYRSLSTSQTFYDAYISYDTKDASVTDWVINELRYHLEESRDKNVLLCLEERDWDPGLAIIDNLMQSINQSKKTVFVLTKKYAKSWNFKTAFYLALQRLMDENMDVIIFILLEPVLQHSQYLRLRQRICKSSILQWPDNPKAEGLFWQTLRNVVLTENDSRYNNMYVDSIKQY
Description: Activation of human TLR8 expressed in HEK293 cells assessed as increase in NF-kappaB activation at 100 ug/ml by SEAP assay. The class given is cell-based.

The test system of data set [12] is Cynomolgus monkey. Description: Increase in CD69 expression on CD14+ monocytes in cynomolgus monkey at 5 mg/kg, sc after 24 hrs by flow cytometry relative to control. Also noted: dose 5 mg/kg. Type of data set: functional, organism-based. Particulars: Macaca fascicularis.
In data set [13] the test system is Cynomolgus monkey. Description: Elevation of IFNalpha in cynomolgus monkey plasma at 5 mg/kg, sc after 24 hrs. Type of data set: functional, organism-based. Also on record: dose 5 mg/kg. Particulars: Macaca fascicularis.
In data set [14] the test system is Mus musculus. Description: Induction of IP10 secretion in C57BL/6 mouse plasma at 100 mg/kg, sc by Luminex Multiplex assay. Type of data set: functional, organism-based. Also noted: dose 100 mg/kg.
For data set [15], the system named is Cynomolgus monkey. Description: Induction of immune response in cynomolgus monkey assessed as increase in number of peripheral blood neutrophils at 5 mg/kg, sc within 24 hrs. Particulars: Macaca fascicularis. Type of data set: functional, organism-based. Also noted: dose 5 mg/kg.
Data set [16] concerns Mus musculus. Nature of the data set: Induction of IFN-gamma-induced monoamine secretion in C57BL/6 mouse plasma at 100 mg/kg, sc by Luminex Multiplex assay. Type of data set: functional, organism-based. Also on record: dose 100 mg/kg.
Data set [17] deals with spleen. Nature of the data set: Induction of chemokine secretion in C57BL/6 mouse spleen cells 100 ug/ml after 24 hrs by Luminex Multiplex assay. Type of data set: functional, cell-based.
Data set [18] deals with Mus musculus. Description: Induction of IL12 secretion in C57BL/6 mouse plasma at 100 mg/kg, sc by Luminex Multiplex assay. Also noted: dose 100 mg/kg. The class given is functional, organism-based.
Data set [19] has as its system Cynomolgus monkey. Nature of the data set: Induction of immune response in cynomolgus monkey assessed as increase in number of peripheral blood monocytes at 5 mg/kg, sc within 24 hrs. Also noted: dose 5 mg/kg. Particulars: Macaca fascicularis. The class given is functional, organism-based.
The subject of data set [20] is Cynomolgus monkey. Description: Elevation of IP10 in cynomolgus monkey plasma at 5 mg/kg, sc after 24 hrs. The class given is functional, organism-based. Also on record: dose 5 mg/kg. Particulars: Macaca fascicularis.
Data set [21] relates to Dendritic cell. Nature of the data set: Induction of IFNalpha secretion in human plasmacytoid dendritic cells at 200 ug/ml after 24 hrs by Luminex Multiplex assay. The class given is functional.

For `Nc1ccn([C@@H]2O[C@H](COP(O)(=S)O[C@H]3[C@@H](O)[C@H](n4ccc(=O)[nH]c4=O)O[C@@H]3COP(O)(=S)O[C@H]3[C@@H](O)[C@H](n4ccc(=O)[nH]c4=O)O[C@@H]3COP(O)(=S)O[C@H]3[C@@H](O)[C@H](n4ccc(N)nc4=O)O[C@@H]3COP(O)(=S)O[C@H]3[C@@H](O)[C@H](n4ccc5c(=O)[nH]c(N)nc54)O[C@@H]3COP(O)(=S)O[C@H]3[C@@H](O)[C@H](n4ccc(=O)[nH]c4=O)O[C@@H]3COP(O)(=S)O[C@H]3[C@@H](O)[C@H](n4ccc(N)nc4=O)O[C@@H]3COP(O)(=S)O[C@H]3[C@@H](O)[C@H](n4ccc5c(=O)[nH]c(N)nc54)O[C@@H]3COP(O)(=S)O[C@H]3[C@@H](O)[C@H](n4ccc(=O)[nH]c4=O)O[C@@H]3CO)[C@@H](OP(O)(=S)OC[C@H]3O[C@@H](n4ccc(=O)[nH]c4=O)[C@H](O)[C@@H]3OP(O)(=S)OC[C@H]3O[C@@H](n4ccc5c(=O)[nH]c(N)nc54)[C@H](O)[C@@H]3OP(O)(=S)OCC(O)COP(O)(=S)O[C@H]3[C@@H](O)[C@H](n4ccc5c(=O)[nH]c(N)nc54)O[C@@H]3COP(O)(=S)O[C@H]3[C@@H](O)[C@H](n4ccc(=O)[nH]c4=O)O[C@@H]3COP(O)(=S)O[C@H]3[C@@H](O)[C@H](n4ccc(N)nc4=O)O[C@@H]3COP(O)(=S)O[C@H]3[C@@H](O)[C@H](n4ccc(=O)[nH]c4=O)O[C@@H]3COP(O)(=S)O[C@H]3[C@@H](O)[C@H](n4ccc(=O)[nH]c4=O)O[C@@H]3COP(O)(=S)O[C@H]3[C@@H](O)[C@H](n4ccc(N)nc4=O)O[C@@H]3COP(O)(=S)O[C@H]3[C@@H](O)[C@H](n4ccc5c(=O)[nH]c(N)nc54)O[C@@H]3COP(O)(=S)O[C@H]3[C@@H](O)[C@H](n4ccc(=O)[nH]c4=O)O[C@@H]3COP(O)(=S)O[C@H]3[C@@H](O)[C@H](n4ccc(N)nc4=O)O[C@@H]3COP(O)(=S)O[C@H]3[C@@H](O)[C@H](n4ccc5c(=O)[nH]c(N)nc54)O[C@@H]3COP(O)(=S)O[C@H]3[C@@H](O)[C@H](n4ccc(=O)[nH]c4=O)O[C@@H]3CO)[C@H]2O)c(=O)n1` (stereo partly specified), the outcome in [1] and in data set [10] was inactive. Moreover, the result in data set [2], in [3], in data set [4], in data set [5], in data set [8] and in data set [11] was Active. Further, the result in data set [12], in data set [13], in [14], in data set [15], in [16] and in data set [18] was Active. The result in data set [19], in data set [20] and in [21] was Active. Further, the Activity entry in data set [6], in [9] and in data set [17] was “Dose-dependent effect” in each case. In addition, the remaining at 10 min in [7] was found to be 57%.
